From paper PMC1664607 (PLoS Medicine, 2006)
Values after ≈ are worked out from the molar mass of the structure shown. Like-named read-outs stand apart in the source and are kept apart here.

Tests used:
[1] = tested on: CYP1A1/2; assay: 7-Ethoxyresorufin O-deethylation in human liver microsomes; type: in vitro ADME; details: 100 μM; 0.5 μM 7-ethoxyresorufin
[2] = tested on: M. tuberculosis ATCC 35838 (H37Rv-R-R); assay: microbe, parasite or virus in culture; type: cell-based; details: Mycobacterium tuberculosis, 336 h
[3] = tested on: M. tuberculosis ATCC 35812 (Kurono); assay: Susceptibility testing (agar dilution MIC); type: cell-based; details: Mycobacterium tuberculosis, ATCC35812, 336 h
[4] = tested on: M. tuberculosis ATCC 35820 (H37Rv-S-R); assay: microbe, parasite or virus in culture; type: cell-based; details: Mycobacterium tuberculosis, 336 h
[5] = tested on: M. tuberculosis ATCC 35837 (H37Rv-E-R); assay: microbe, parasite or virus in culture; type: cell-based; details: Mycobacterium tuberculosis, 336 h
[6] = tested on: M. tuberculosis ATCC 25618 (H37Rv); assay: Susceptibility testing (agar dilution MIC); type: cell-based; details: Mycobacterium tuberculosis, 336 h
[7] = tested on: M. tuberculosis Kurono; assay: Therapeutic efficacy in an experimental mouse model of chronic TB; type: in vivo, ICR mice; details: for Log of Viable Counts/Lung: 672 h; for Dose that could produce a CFU reduction of at least 95%: lung; for Dose that could produce a CFU reduction of at least 95% / Dose groups that showed a significant decrease in pulmonary viable bacterial count when compared with the vehicle control group: once daily for 28 d
[8] = tested on: intracellular M. tuberculosis H37Rv in THP-1 cells; assay: Activity against intracellular mycobacteria, 4-h pulsed exposure; type: cell-based, M. tuberculosis; human THP-1 cells; details: further 68-h culture
[9] = tested on: M. tuberculosis ATCC 35822 (H37Rv-H-R); assay: microbe, parasite or virus in culture; type: cell-based; details: Mycobacterium tuberculosis, 336 h
[10] = tested on: M. tuberculosis; assay: Activity of the main metabolite (test not described); details: metabolite produced in the presence of M. tuberculosis
[11] = tested on: clinically isolated M. tuberculosis; assay: microbe, parasite or virus in culture; type: cell-based; details: Mycobacterium tuberculosis; read-out: MIC90
[12] = tested on: S. typhimurium TA1535; assay: Bacterial reverse mutation (BRM) test; type: cell-based; details: S9 mix +; positive control 2AA 2 μg/plate
Protocol: (§1) The BRM test was performed in accordance with OECD Guideline 471 using Salmonella tyiphimurium TA98, TA100, TA1535, and TA1537, and Escherichia coli WP2 uvrA [11]. Each bacterial strain was pre-cultured at 37 °C for 18 h using a nutrient broth (Nissui Pharmaceutical; http://www.nissui-pharm.co.jp/index_e.html). After adjustment to 2.4 at OD660 nm, each bacterial suspension was added to a test tube containing the designated compound in the absence or presence of rat liver microsome (S9) mix. After a 20-min incubation at 37 °C, top agar was added to each test tube and the contents were poured into minimum essential medium (Oriental Yeast; http://www.oyc.co.jp/e/index.htm). The number of revertants was counted 48 h after incubation at 37 °C.

[13] = tested on: S. typhimurium TA98; assay: Bacterial reverse mutation (BRM) test; type: cell-based; details: S9 mix +; positive control 2AA 0.5 μg/plate
Protocol: as §1

[14] = tested on: E. coli WP2 uvr A; assay: Bacterial reverse mutation (BRM) test; type: cell-based; details: S9 mix +; positive control 2AA 10 μg/plate
Protocol: as §1

[15] = tested on: S. typhimurium TA100; assay: Bacterial reverse mutation (BRM) test; type: cell-based; details: S9 mix +; positive control 2AA 1 μg/plate
Protocol: as §1

[16] = tested on: S. typhimurium TA1537; assay: Bacterial reverse mutation (BRM) test; type: cell-based; details: S9 mix +; positive control 2AA 2 μg/plate
Protocol: as §1

[17] = Plasma levels in an experimental mouse model of TB; details: in vivo, po
[18] = tested on: mycolic acid synthesis in M. bovis BCG; assay: microbe, parasite or virus in culture; type: cell-based; details: Mycobacterium tuberculosis variant bovis BCG, BCG

Cc1nc2c([nH]1)c(=O)n(C)c(=O)n2Cc1ccco1 [Furafylline, furafylline]
Percent of Control [1]: 32.3% of Control

O=[N+]([O-])c1cn2c(n1)OC[C@@H](OCc1ccc(OC(F)(F)F)cc1)C2 [PA-824]
MIC [2]: 0.1 µg/mL (≈ 0.278 µM) | MIC [3]: 0.2 µg/mL (≈ 0.557 µM) | MIC [4]: 0.2 µg/mL (≈ 0.557 µM) | MIC [5]: 0.2 µg/mL (≈ 0.557 µM) | MIC [6]: 0.2 µg/mL (≈ 0.557 µM) | Log of Viable Counts/Lung ([7]; 1.25 mg/kg): 6.905 ± 0.382^c:NS, d:NS | Log of Viable Counts/Lung ([7]; 2.5 mg/kg): 6.567 ± 0.108^c:NS, d:NS | Log of Viable Counts/Lung ([7]; 5 mg/kg): 6.329 ± 0.303^c:NS, d:NS | Log of Viable Counts/Lung ([7]; 10 mg/kg): 6.244 ± 0.728^c:NS, d:NS | Log of Viable Counts/Lung ([7]; 20 mg/kg): 4.688 ± 0.944^c:**, d:** | Log of Viable Counts/Lung ([7]; 40 mg/kg): 5.145 ± 0.444^c:**, d:** | Activity against intracellular M. tuberculosis H37Rv [8]: poor activity | MIC [9]: 0.05 µg/mL (≈ 0.139 µM)

CC1(COc2ccc(N3CCC(Oc4ccc(OC(F)(F)F)cc4)CC3)cc2)Cn2ccnc2O1 (stereo not drawn) [desnitro-imidazooxazole]
Activity of the main metabolite [10]: non-active

O=c1cc(-c2ccccc2)oc2c1ccc1ccccc12 [7,8-Benzoflavone, 7,8-benzoflavone]
Percent of Control [1]: 3.8% of Control

CN[C@@H]1[C@H](O[C@H]2[C@H](O[C@H]3[C@H](O)[C@@H](O)[C@H](N=C(N)N)[C@@H](O)[C@@H]3N=C(N)N)O[C@@H](C)[C@]2(O)C=O)O[C@@H](CO)[C@H](O)[C@H]1O [SM, streptomycin]
MIC [2]: 0.78 µg/mL (≈ 1.34 µM) | MIC [3]: 0.78 µg/mL (≈ 1.34 µM) | MIC [4]: > 100 µg/mL | MIC [5]: 0.78 µg/mL (≈ 1.34 µM) | MIC [6]: 1.56 µg/mL (≈ 2.68 µM) | Log of Viable Counts/Lung ([7]; 20 mg/kg): 6.000 ± 0.553^a:**, b:* | Log of Viable Counts/Lung ([7]; 40 mg/kg): 6.040 ± 0.361^a:**, b:* | Log of Viable Counts/Lung ([7]; 80 mg/kg): 5.739 ± 0.309^a:**, b:** | Log of Viable Counts/Lung ([7]; 160 mg/kg): 5.184 ± 0.461^a:**, b:** | Dose that could produce a CFU reduction of at least 95% [7]: 40 mg/kg | Dose groups that showed a significant decrease in pulmonary viable bacterial count when compared with the vehicle control group [7]: 20, 40, 80, and 160 mg/kg | MIC90 [11]: 2.94 µg/mL (≈ 5.05 µM) | MIC [9]: 0.78 µg/mL (≈ 1.34 µM)

Nc1ccc2cc3ccccc3cc2c1 [2AA, 2-aminoanthracene]
Revertants/Plate [12]: 6 188 Revertants/Plate | Revertants/Plate [13]: 36 92 Revertants/Plate | Revertants/Plate [14]: 33 1122 Revertants/Plate | Revertants/Plate [15]: 108 1103 Revertants/Plate | Revertants/Plate [16]: 81 238 Revertants/Plate

CC[C@@H](CO)NCCN[C@@H](CC)CO [EB, ethambutol]
MIC [2]: 1.56 µg/mL (≈ 7.64 µM) | MIC [3]: 3.13 µg/mL (≈ 15.3 µM) | MIC [4]: 3.13 µg/mL (≈ 15.3 µM) | MIC [5]: 50 µg/mL (≈ 245 µM) | MIC [6]: 1.56 µg/mL (≈ 7.64 µM) | Log of Viable Counts/Lung ([7]; 20 mg/kg): 6.923 ± 0.721^a:NS, b:NS | Log of Viable Counts/Lung ([7]; 40 mg/kg): 6.696 ± 0.382^a:NS, b:NS | Log of Viable Counts/Lung ([7]; 80 mg/kg): 6.429 ± 0.475^a:NS, b:NS | Log of Viable Counts/Lung ([7]; 160 mg/kg): 5.642 ± 0.120^a:**, b:** | Dose that could produce a CFU reduction of at least 95% [7]: > 160 mg/kg | Dose groups that showed a significant decrease in pulmonary viable bacterial count when compared with the vehicle control group [7]: 160 mg/kg | AUC(0-t) [17]: 12200 ng·h/mL | concentration at 0.083 h [17]: 55 ± 49 ng/mL | concentration at 0.25 h [17]: 1300 ± 939 ng/mL | concentration at 0.5 h [17]: 3170 ± 392 ng/mL | concentration at 1 h [17]: 3510 ± 1130 ng/mL | concentration at 2 h [17]: 2510 ± 1010 ng/mL | concentration at 4 h [17]: 1020 ± 202 ng/mL | AUC(0-t) ([17]; 100 mg/kg): 12100 ng·h/mL | Cmax ([17]; 100 mg/kg): 3510 ng/mL | Tmax ([17]; 100 mg/kg): 1 h | half-life ([17]; 100 mg/kg): 2.8 h | MIC90 [11]: 3.64 µg/mL (≈ 17.8 µM) | MIC [9]: 3.13 µg/mL (≈ 15.3 µM)

NNC(=O)c1ccncc1 [INH, isoniazid]
MIC [2]: 0.1 µg/mL (≈ 0.729 µM) | IC50 ([18]; 1 h, read-out: IC50, Fatty acid): > 4 µg/mL | IC50 ([18]; 1 h, read-out: IC50, Keto-mycolic acid): 0.69 µg/mL (≈ 5.03 µM) | IC50 ([18]; 1 h, read-out: IC50, Methoxy-mycolic acid): 0.63 µg/mL (≈ 4.59 µM) | IC50 ([18]; 1 h, read-out: IC50, α-Mycolic acid): 1.85 µg/mL (≈ 13.5 µM) | IC50 ([18]; read-out: IC50 values, all mycolic acid subclasses): 0.63 to 1.85 µg/mL (≈ 4.59 to 13.5 µM) | MIC [3]: 0.1 µg/mL (≈ 0.729 µM) | MIC [4]: 0.1 µg/mL (≈ 0.729 µM) | MIC [5]: 0.2 µg/mL (≈ 1.46 µM) | MIC [6]: 0.1 µg/mL (≈ 0.729 µM) | Log of Viable Counts/Lung ([7]; 1.25 mg/kg): 6.702 ± 0.237^c:NS, d:NS | Log of Viable Counts/Lung ([7]; 2.5 mg/kg): 5.751 ± 0.358^c:**, d:* | Log of Viable Counts/Lung ([7]; 5 mg/kg): 4.944 ± 0.760^c:**, d:** | Log of Viable Counts/Lung ([7]; 10 mg/kg): 4.434 ± 0.319^c:**, d:** | Log of Viable Counts/Lung ([7]; 20 mg/kg): 4.595 ± 0.452^c:**, d:** | Dose that could produce a CFU reduction of at least 95% [7]: 5 mg/kg | Dose groups that showed a significant decrease in pulmonary viable bacterial count when compared with the vehicle control group [7]: 2.5, 5, 10, and 20 mg/kg | concentration at 0.083 h [17]: 2170 ± 435 ng/mL | concentration at 0.25 h [17]: 3060 ± 779 ng/mL | concentration at 0.5 h [17]: 2280 ± 390 ng/mL | concentration at 1 h [17]: 1920 ± 478 ng/mL | concentration at 2 h [17]: 740 ± 202 ng/mL | concentration at 4 h [17]: 253 ± 57 ng/mL | AUC(0-t) ([17]; 10 mg/kg): 4550 ng·h/mL | Cmax ([17]; 10 mg/kg): 3060 ng/mL | Tmax ([17]; 10 mg/kg): 0.25 h | Activity against intracellular M. tuberculosis H37Rv [8]: poor activity | MIC90 [11]: 0.099 µg/mL (≈ 0.722 µM) | MIC [9]: > 100 µg/mL
